# Laboratory results as given in publication PMC7707092, “Discovery and characterization of ORM‐11372, a novel inhibitor of the sodium‐calcium exchanger with positive inotropic activity” (British Journal of Pharmacology, 2020).
# Tests used:
# [1] = biological target: hERG KV11.1 current (I hERG) (Homo sapiens, UniProt Q12809); assay: KV11.1 channel current (I hERG), manual patch‐clamp, CHO cells; type: cell-based
# Protocol: CHO cells stably expressing either hERG1a (KV11.1) channels (KCNH2; RRID:CVCL_H512) or human 5‐HT2B receptors were cultured at 37°C in a 5% CO2/95% air atmosphere in the Ham's Nutrient Mixture F‐12 (HAM F‐12) medium supplemented with 10% FBS (heat inactivated), 100 μg·ml^−1 of hygromycin B (Invitrogen), and 100 μg·ml^−1 of geneticin or 100 IU·ml^−1 of penicillin and 100 IU·ml^−1 of streptomycin, 25‐mM HEPES, 500 μg·ml^−1 of geneticin, and 250 μg·ml^−1 of Zeocin®. Adhered cells were detached using either Detachin® solution or trypsin and replated twice a week. HEK 293 (RRID:CVCL_0045) and IMR‐32 cells (CCL‐127; RRID:CVCL_0346) were cultured similarly but maintained instead in DMEM, supplemented with 10% FBS (heat inactivated), 100 IU·ml^−1 of penicillin and 100 IU·ml^−1 of streptomycin, and 25‐mM HEPES, and in the case of the IMR‐32 cell line, with minimum essential medium (MEM) non‐essential amino acids. IMR‐32 cells are derived from a human neuroblastoma and endogenously express L‐type (CaV1.x) calcium channel (Sher, Gotti, Pandiella, Madeddu, & Clementi, 1988). […]
# Values from hERG‐expressing cells (n = 4) were recorded with the standard extracellular solution at the physiological temperature and a pipette solution containing (in mM) 130 KCl, 7 NaCl, 5 EGTA, 1 MgCl2, 5 Na2ATP, and 5 HEPES (pH was set to 7.2 with KOH; osmolarity was adjusted to 290 ± 3 mOsm). […]
# [2] = test system: anaesthetized rats with myocardial infarctions; assay: Haemodynamics in anaesthetized MI and sham rats; type: in vivo; conditions: for free plasma concentration: 417 μg·kg^−1·min^−1; for maximal positive inotropic effect (LV + dP/dt max): i.v. infusion 417 μg·kg^−1·min^−1
# Source text: Male Sprague–Dawley rats (Harlan, Netherlands B.V.) were housed in polycarbonate cages (Makrolon IV with stainless steel wire mesh lids). A maximum of five rats were housed per cage with aspen chip bedding (Tapvei Ky, Kaavi, Finland). Rats had free access to water (twice filtered, Espoon Vesi) and a rodent diet (SDS RM1 (P) SQC pelleted diet, Special Diet Services Ltd, Witham, England). The acclimation period before experiments was at least 5 days. In the MI model, rats (7–8 weeks, 200–250 g) were randomized into either the MI or sham group. In this weight range, a rat is considered a young adult, when its evolution phase is characterized by slow growth and its surgical mortality is lower than that of older animals. Male rats were used to minimize the variability of the cardiac response to several stimuli (Zornoff, Paiva, Minicucci, & Spadaro, 2009).
# Rats were anaesthetized with a combination of ketamine (Ketalar® 50 mg·kg−1, i.p.) and medetomidine (Domitor 250 μg·kg^−1, i.p.), intubated, and artificially ventilated with air (Ugo Basile 7025). An MI was induced by the occlusion of the left coronary artery under aseptic conditions (Levijoki, Pollesello, Kaheinen, & Haikala, 2001; Selye, Bajusz, Grasso, & Mendell, 1960). The left coronary artery was ligated at a distance of about 2–3 mm from the origin of the aorta with a silk suture, and the heart was repositioned into the chest. After ligation, the wound was closed carefully. The muscle layer was closed with soluble stitches and skin layers with insoluble stitches, followed by a partial reversal of anaesthesia via the […] administration of atipamezole (Antisedan® 0.3–1 mg·kg^−1, i.m.). The trachea tube was removed, and the trachea and underlying muscle and skin layers were closed immediately. To prevent dehydration, rats were subcutaneously administered with 5 ml of 0.9% NaCl. After surgery, rats were given analgesia with buprenorphine for at least 2 days (0.05 mg·kg^−1, s.c. twice a day). For sham‐operated rats, the same procedure was performed, without ligation. Rats were analysed for 7 days after the MI, for signs of severe acute heart failure such as oedema or breathing difficulties.
# All animals were given multiple ascending infusion doses of ORM‐11372; blinding was not possible. Systemic BP (SP) and left ventricular pressure (LVP) values were measured with pressure transducers (SP for femoral artery: Isotec, Hugo Sachs Elektronic, Germany; a miniature pressure transducer Mikro‐Tip transducer SPR‐249, Millar Instruments was inserted into the left ventricle via the right carotid artery). The signal was amplified (DC‐bridge amplifier type 660, Hugo Sachs Elektronik, Germany), digitized (I/O connector block type SCB‐68, National Instruments, USA), recorded, and analysed (IHME 1.0.9, Fision Ltd, Finland). Left ventricular inotropic effect (LV + dP/dt max), relaxation (LV − dP/dt min), and HR values were analysed from LVP signals.
# Haemodynamics were assessed 7 days after the MI (n = 6) or sham operation (n = 6) as follows. Rats were anaesthetized with isoflurane (2.25–2.5%, Baxter) in carbogen (95% O2 and 5% CO2) and nitrous oxide (1:1), using a small rodent ventilator (Ugo Basile 7025, ~10 ml·kg^−1, 60 strokes·min^−1). The rats were infused with 0.9% NaCl in the […] at the stabilization and baseline levels. ORM‐11372 was administered into MI (n = 6) and sham (n = 6) rats in ascending infusion doses of 1.7, 17, 167, and 417 μg·kg^−1·min^−1. Infusions were administered into the jugular vein of MI rats at the infusion rate of 5 ml·kg^−1·h^−1 (Terumo TE‐311, Belgium). Doses were selected based on a pilot study with healthy rats (Figure S20). The total number of animals in the study was 12 + 2, due to the replacement of two MI rats. […]
# hERG KV11.1 current (I hERG), sequence (Q12809 whole entry): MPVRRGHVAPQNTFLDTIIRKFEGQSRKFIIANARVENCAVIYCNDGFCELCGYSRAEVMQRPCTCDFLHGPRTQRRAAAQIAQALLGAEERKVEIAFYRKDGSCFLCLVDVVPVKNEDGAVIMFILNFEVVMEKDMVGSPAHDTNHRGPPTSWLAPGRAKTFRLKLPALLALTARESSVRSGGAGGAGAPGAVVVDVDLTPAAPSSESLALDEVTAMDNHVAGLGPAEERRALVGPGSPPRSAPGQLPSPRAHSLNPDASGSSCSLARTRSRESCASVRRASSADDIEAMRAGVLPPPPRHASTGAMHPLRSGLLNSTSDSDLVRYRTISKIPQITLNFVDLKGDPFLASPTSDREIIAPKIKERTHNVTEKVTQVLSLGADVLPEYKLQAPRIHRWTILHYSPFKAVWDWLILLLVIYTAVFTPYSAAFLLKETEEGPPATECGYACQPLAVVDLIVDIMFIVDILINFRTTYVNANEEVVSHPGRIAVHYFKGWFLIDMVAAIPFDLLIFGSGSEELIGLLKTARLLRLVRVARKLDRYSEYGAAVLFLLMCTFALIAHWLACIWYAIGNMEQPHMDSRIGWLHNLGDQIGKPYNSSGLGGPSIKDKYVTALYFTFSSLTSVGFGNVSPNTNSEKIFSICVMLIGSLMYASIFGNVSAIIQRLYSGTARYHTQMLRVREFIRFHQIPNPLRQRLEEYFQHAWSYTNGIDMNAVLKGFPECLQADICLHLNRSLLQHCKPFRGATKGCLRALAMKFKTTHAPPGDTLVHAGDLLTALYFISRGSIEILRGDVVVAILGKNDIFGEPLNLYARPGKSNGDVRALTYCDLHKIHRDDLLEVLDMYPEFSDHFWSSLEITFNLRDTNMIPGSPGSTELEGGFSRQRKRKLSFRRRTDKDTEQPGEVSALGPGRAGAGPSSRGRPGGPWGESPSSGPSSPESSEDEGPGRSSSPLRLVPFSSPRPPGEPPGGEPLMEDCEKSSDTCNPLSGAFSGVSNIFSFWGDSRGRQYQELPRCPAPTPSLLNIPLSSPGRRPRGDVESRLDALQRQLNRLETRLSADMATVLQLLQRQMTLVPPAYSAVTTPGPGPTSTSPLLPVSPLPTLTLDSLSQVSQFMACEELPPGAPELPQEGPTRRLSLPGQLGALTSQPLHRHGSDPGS
compound,measurement,setting,value
Nc1cccc(-c2ccc(CNc3ccc(F)cc3)o2)c1 [ORM‐11372],"safety margin (ratio), I NCX over Kv11.1 current",[1],"≥ 2,000"
same,IC50,"[1]; manual patch‐clamp, physiological temperature",10 µM
same,improvement of relaxation,"[2]; MI group, lowest infusion dose 1.7 μg·kg^−1·min^−1",24 ± 2%
same,systemic arterial BP,[2]; MI or sham groups,no effect
same,free plasma concentration,[2]; MI rats,6.7 ± 2.5 nM
same,maximal positive inotropic effect (LV + dP/dt max),[2]; MI rats,18 ± 6%
same,free plasma concentration,[2]; sham rats,4.9 ± 0.4 nM
same,maximal positive inotropic effect (LV + dP/dt max),[2]; sham rats,31 ± 6%
